# From patent US20230138178A1, “Methods and Compositions for Producing a Heterologous Antiviral Compound in a Host Cell” (priority 2019, published 2023)
# Entries after “also recorded” stand apart in the source; their conditions may differ.
# Legend:
# HSV-1 = assay type: cell-based, Herpes Simplex Virus 1; details: mouse macrophages/BMDMs pre-treated with 1 mM ddhC; MOI 1 or 10; 24 hours; flow cytometry; preliminary
# [1] = test system: TLR-mediated Type 1 interferon signaling; test: TLR-mediated Type 1 interferon signaling in macrophages; assay type: cell-based
# ZIKV = details: previous study; cited from earlier work
# HCV = details: previous study; cited from earlier work
# WNV = details: previous study; cited from earlier work
# DV = details: previous study; cited from earlier work
# flavivirus = details: endogenously produced and exogenously administered; Gizzi et al., 2018; cited from earlier work
# host cell physiology = details: cited from earlier work
# Vaccinia virus = assay type: cell-based
# LCMV = assay type: cell-based, lymphocytic choriomeningitis virus; details: BMDMs pre-treated with 1 mM ddhC; MOI 1 or 10; 24 hours; qPCR; preliminary
# M. tuberculosis = M. tuberculosis growth in ddhC-stimulated macrophages; assay type: cell-based, Mycobacterium tuberculosis; details: ddhC-stimulated macrophages vs Vehicle or Cytidine; preliminary
# [2] = test system: TLR-mediated NFkB activation; test: TLR-mediated NFkB activation, RAW264.7 NFkB reporter cells; assay type: cell-based; details: for TLR-mediated NFkB activation: RAW264.7 NFkB reporter, pre-treated overnight, 500 ng/mL LPS, 1 μg/mL PAM, or 1 μg/mL R848
# Viperin expression = Viperin expression in Poly(I:C)-stimulated BMDMs (qPCR); details: 1 mM ddhC co-stimulated with 25 ug/mL Poly(I:C)
Structure (SMILES),HSV-1 replication / infectivity (HSV-1),TLR4-mediated Type 1 interferon induction ([1]; preliminary results),suppression of ZIKV (ZIKV),suppression of HCV (HCV),suppression of WNV (WNV),suppression of DV (DV),flavivirus infection restriction (flavivirus),cytotoxic effects on host cell physiology (host cell physiology),toxicity to the host (host cell physiology),Vaccinia virus infection (Vaccinia virus),LCMV replication (LCMV),M. tuberculosis growth restriction (M. tuberculosis),TLR-mediated NFkB activation [2],"TLR-mediated NFkB signaling in macrophages ([2]; macrophages, preliminary data)","TLR-mediated Type 1 interferon signaling ([1]; macrophages, preliminary data)",Poly(I:C)-induced Viperin upregulation (Viperin expression)
"Nc1ccn([C@@H]2OC(COP(=O)(O)OP(=O)(O)OP(=O)(O)O)=C[C@H]2O)c(=O)n1 [ddhCTP, 3′-deoxy-3′, 4′-didehydro-CTP]",increases,suppresses,can suppress,can suppress,can suppress,can suppress,restricts,no cytotoxic effects,minimal evidence of toxicity,,,,,,,
Nc1ccn([C@@H]2OC(CO)=C[C@H]2O)c(=O)n1 [ddhC],increases replication; also recorded: increasing,,,,,,restricts,,minimal evidence of toxicity,negligible effects,suppresses replication,lead to restriction; also recorded: restrict M. tuberculosis growth greater than those treated with Vehicle or Cytidine,agonize,modulates,modulates,dampened
Nc1nc2c(ncn2[C@@H]2OC(CO)=C[C@H]2O)c(=O)[nH]1 [ddhG],,,,,,,,,,,,,agonize,,,
